The nature of one data set: in vivo. The settings on record: both, NIH, mouse, iv.
Data set [1] can be described thus: Adverse events in the hepatobiliary system in patients with HER2-overexpressing metastatic breast cancer. Particulars: text count, cohort of 39 patients.
For a further data set, the system named is liver. Briefly: Swiss mice hepatotoxicity model. The settings on record: after 2 weeks, liver tissues.
The subject of data set [2] is HepG2 cells. Put plainly: MTT cytotoxicity of doxorubicin with lapatinib, parental cells. The format is cell-based, human. The settings on record: lapatinib added 1 h before doxorubicin. The procedure:
(§1) We collected the cells and seeded them at a density of 3.0 × 10^3 cells per well in 96-well plates. […] After 68 h, MTT (5 mg/mL, 20 μL) was added into each well and cultured for another 4 h. Then the medium was discarded and each well was added with 120 μL DMSO. Finally, optical density was measured at 540 nm with background subtraction at 670 nm by Model 550 Microplate Reader (Bio-Rad, Hercules, CA, USA).

Data set [3] concerns the target T1, ABCB1-overexpressing HepG2/Adr cells (Homo sapiens, UniProt P08183).
T1 construct: The Dox-selected derivative ABCB1-overexpressing HepG2/Adr subline was established as previous study; endogenous in cells; host or cells: HepG2/Adr (doxorubicin-selected subline of human HepG2)
Briefly: MTT cytotoxicity of doxorubicin with lapatinib, resistant cells. Type of data set: cell-based. Particulars: lapatinib added 1 h before doxorubicin. The protocol:
as §1

Another data set concerns ABCB1. Briefly: ABCB1 expression by Western blot and qRT-PCR. The format is cell-based, human. Particulars: HepG2/Adr cells, lapatinib for 24, 48 or 72 h. For orientation: In western blotting, separated proteins are transferred to a membrane and probed.
The subject of the next data set is Swiss mice liver tissues. Put plainly: Ex vivo doxorubicin accumulation in Swiss mice liver tissues. The settings on record: 2.5 μM lapatinib, 10 μM doxorubicin.
The subject of data set [4] is HepG2 cells. Put plainly: Doxorubicin and rhodamine 123 accumulation by flow cytometry in parental cells. The format is cell-based, human. Particulars: in the presence of lapatinib. The protocol:
The human hepatocellular carcinoma cell line HepG2 was obtained from American Type Culture Collection (ATCC). The Dox-selected derivative ABCB1-overexpressing HepG2/Adr subline was established as previous study. All cells were grown in DMEM supplemented with 10% fetal bovine serum, 100 units/mL streptomycin sulfate and 100 units/mL penicillin G sulfate, and maintained at 37°C in the presence of 5% CO2. HepG2/Adr cells were cultured with 1.2 μM Dox to maintain its ABCB1-overexpressing properties. All cells were grown in drug-free culture medium for more than 2 weeks before assay.
The accumulation of doxorubicin or rhodamine 123 in HepG2 and HepG2/Adr cells was measured as previously described. Verapamil, a known ABCB1 inhibitor, was used as a positive control.
For orientation: A flow cytometer gives signals particle by particle.

The conditions of data set [5]: human pharmacokinetic studies ref 35, 36; cited from earlier work.

Where two headings read alike, the source gives them in different places.

T1 sequence (P08183 whole entry): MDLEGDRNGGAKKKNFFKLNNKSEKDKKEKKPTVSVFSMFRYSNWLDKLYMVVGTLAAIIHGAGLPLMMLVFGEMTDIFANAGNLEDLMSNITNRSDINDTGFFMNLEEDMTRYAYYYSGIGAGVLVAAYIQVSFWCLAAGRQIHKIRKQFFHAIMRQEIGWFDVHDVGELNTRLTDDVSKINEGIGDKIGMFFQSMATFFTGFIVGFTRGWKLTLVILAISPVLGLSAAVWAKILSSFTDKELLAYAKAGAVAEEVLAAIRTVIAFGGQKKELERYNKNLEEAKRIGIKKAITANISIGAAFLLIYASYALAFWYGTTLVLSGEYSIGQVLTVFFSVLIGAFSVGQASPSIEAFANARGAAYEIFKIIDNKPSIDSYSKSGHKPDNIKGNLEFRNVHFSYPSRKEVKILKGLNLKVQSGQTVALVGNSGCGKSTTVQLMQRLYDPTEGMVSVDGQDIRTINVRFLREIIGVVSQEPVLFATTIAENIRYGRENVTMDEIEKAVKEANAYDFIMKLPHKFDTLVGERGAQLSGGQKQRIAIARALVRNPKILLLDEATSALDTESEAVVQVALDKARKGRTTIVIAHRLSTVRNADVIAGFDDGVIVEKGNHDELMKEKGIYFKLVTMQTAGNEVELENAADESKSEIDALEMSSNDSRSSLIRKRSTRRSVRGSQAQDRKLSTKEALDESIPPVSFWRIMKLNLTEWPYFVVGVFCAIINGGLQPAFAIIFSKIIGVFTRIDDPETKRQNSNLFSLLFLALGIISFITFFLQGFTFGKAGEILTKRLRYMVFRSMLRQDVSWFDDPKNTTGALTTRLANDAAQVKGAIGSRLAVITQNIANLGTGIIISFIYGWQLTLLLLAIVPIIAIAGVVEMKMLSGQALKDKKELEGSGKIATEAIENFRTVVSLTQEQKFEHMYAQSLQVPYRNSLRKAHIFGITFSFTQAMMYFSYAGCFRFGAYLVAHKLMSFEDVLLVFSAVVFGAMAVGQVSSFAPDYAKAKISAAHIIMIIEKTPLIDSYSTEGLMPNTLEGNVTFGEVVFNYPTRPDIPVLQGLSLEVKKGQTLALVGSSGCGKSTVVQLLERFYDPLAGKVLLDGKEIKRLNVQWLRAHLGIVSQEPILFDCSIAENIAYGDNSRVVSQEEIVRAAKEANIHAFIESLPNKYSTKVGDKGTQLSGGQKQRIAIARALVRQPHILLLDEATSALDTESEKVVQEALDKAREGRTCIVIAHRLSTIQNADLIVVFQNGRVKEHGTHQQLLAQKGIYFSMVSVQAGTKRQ
Description for Swiss mice liver tissues: The fresh normal liver tissue adjacent to the hepatocellular carcinoma retrieved from Sun Yat-sen university cancer center was used for the drug accumulation assay ex vivo. Informed consent was obtained from the patients before tissue collection. The work was approved by the ethics review committee at Sun Yat-sen University (Guangzhou, China). Liver tissues of 50-100 mg were cut into small pieces (1mm^3) and cultured in DMEM containing 15% fetal bovine serum at 37°C. […] Subsequently, the tissues were then collected, centrifuged and washed twice with cold PBS containing 10 μM verapamil. Then, liver tissues were resuspended in 1 ml/100 mg tissues lysis solution which contained 0.3 mol/l HCl and 60% ethanol (1:1) and was homogenized at 4°C and then centrifuged at 12 000 × g [43]. The supernatant was removed and its fluorescence signal was measured by a spectrofluorometer at λex 470 nm and λem 590 nm. Simultaneously, the standard curve of doxorubicin was made with the same condition. The doxorubicin accumulation in liver tissues (μg/g) was calculated according to the fluorescence value using a standard curve.
Description for in vivo: Blood was collected from the retro-orbital plexus at designated time points and they were kept in cold heparin coated glass tubes. The blood from 1 male and 1 female was pooled and plasma was isolated and stored at −80°C until analysis. […] Pharmacokinetic parameters was determined from the concentration-time data by non compartment model using the 3P97 software (Practical Pharmacokinetics Software, Beijing, China).

Take `CC(=O)O[C@H]1C(=O)[C@@]2(C)[C@H]([C@H](OC(=O)c3ccccc3)[C@]3(O)C[C@H](OC(=O)[C@H](O)[C@@H](NC(=O)c4ccccc4)c4ccccc4)C(C)=C1C3(C)C)[C@]1(OC(C)=O)CO[C@@H]1C[C@@H]2O` [Paclitaxel, paclitaxel]: in “in vivo” (in vivo, 18 mg/kg), the MRT stood at 1.42 ± 0.08 h, the Vd came to 0.015 ± 0.00128 L, the clearance was 0.139 mL/min and the half-life was 1.24 ± 0.06 h. Also, in [1], the “patients who showed grade 1 abnormal hepatic function” value was 2 patients. Besides, in the data set on liver, the “liver histology (HE staining)” value is “mild liver damage”.

On to `CS(=O)(=O)CCNCc1ccc(-c2ccc3ncnc(Nc4ccc(OCc5cccc(F)c5)c(Cl)c4)c3c2)o1` [Lapatinib], for which the “effect on cytotoxicity of doxorubicin” value in the data set on HepG2 cells [2] was “not in the parental HepG2 cells”. Also, the “effect on cytotoxicity of doxorubicin” value in data set [3] is given as “enhance the cytotoxicity effect of doxorubicin in HepG2/Adr cells in a concentration-dependent manner”. Further, in the data set with ABCB1, the “ABCB1 RNA and protein expressions” value was “not significantly altered”. Moreover, the “increase of fluorescent index of doxorubicin” value in the data set on Swiss mice liver tissues is listed as 2.46 fold. In the data set on HepG2 cells [4], the “intracellular accumulation of doxorubicin” value is given as “not altered” and the “intracellular accumulation of rhodamine 123” value is recorded as “not altered”. In addition, in data set [5], the half-life result is given as “approximately 17 h” and the “highest peak plasma lapatinib concentration” value is given as “roughly 3 μM”.

In “in vivo” (in vivo, 10 mg/kg), `COc1cccc2c1C(=O)c1c(O)c3c(c(O)c1C2=O)C[C@@](O)(C(=O)CO)C[C@@H]3O[C@H]1C[C@H](N)[C@H](O)[C@H](C)O1` [Doxorubicin] displayed an AUC(0-inf) of 2960 ± 878 ng·h/mL, an AUC(0-t) of 2920 ± 841 ng·h/mL and a Vd of 0.00339 ± 0.00121 L. In the data set “in vivo” (plasma, 10 mg/kg), this molecule had an MRT of 7.51 ± 1.08 h and a half-life of 5.2 ± 0.75 h. Moreover, in the data set with liver, the “liver histology (HE staining)” value is “mild central venous hyperemia, Hepatic cord disorder and vacuolar degeneration”.

A word on the MRT: it is the average time that molecules of a dose stay in the body. As a reminder, the Vd is a proportionality between amount in the body and measured concentration, not a real space. Read a high Vd as wide distribution into tissue. Broadly, the clearance is the volume of plasma or blood freed of the substance per unit of time. Low readings indicate a low capacity for elimination, high ones a high capacity for elimination. As a reminder, the half-life is the time in which the quantity being followed falls by half. A word on the AUC(0-inf): it is the area under the concentration-time curve extrapolated to infinity. As a reminder, the AUC(0-t) is the area under the concentration-time curve up to a stated or last time point.
